IC50 data for 8 compounds are collected here from patent publication US8362017B2, “C-kit modulators and methods of use” (Exelixis, Inc., priority 2003, dated 2013).

For the assay, the target named is c-Kit kinase (Homo sapiens, UniProt P10721). The experiment in a line: c-Kit biochemical activity assay (AlphaScreen). The note with it: biotinylated poly(Glu, Tyr) substrate, 1 hr at ambient temperature. The protocol:
Kinase activity and compound inhibition are investigated using one or more of the three assay formats described below. The ATP concentrations for each assay are selected to be close to the Michaelis-Menten constant (KM) for each individual kinase. Dose-response experiments are performed at 10 different inhibitor concentrations in a 384-well plate format. The data are fitted to four-parameter equation (2) below; where Y is the observed signal, X is the inhibitor concentration, Min is the background signal in the absence of enzyme (0% enzyme activity), Max is the signal in the absence of inhibitor (100% enzyme activity), IC50 is the inhibitor concentration at 50% enzyme inhibition and H represents the empirical Hill's slope to measure the cooperativity. Typically H is close to unity. Y=Min+(Max−Min)/(1+(X/IC50)^H) Equation (2) c-Kit Assay
c-Kit biochemical activity was assessed using AlphaScreen™ (Perldn Elmer) technology, described above. Test compounds, ATP, biotinylated poly(Glu, Tyr) and c-Kit kinase were combined in a volume of 20 μL in a 384-well white, medium binding microtiter plate (Greiner). Reaction mixtures were incubated for 1 hr at ambient temperature. Reactions were quenched by addition of 10 μL of 15-30 mg/mL AlphaScreen bead suspension containing 75 mM Hepes, pH 7.4, 300 mM NaCl, 120 mM EDTA, 0.3% BSA and 0.03% Tween-20. After 16 hr incubation at ambient temperature plates were read using an AlphaQuest reader (Perkin Elmer).
Background: Alpha assays give light when donor and acceptor beads are brought close together.

c-Kit kinase, sequence (P10721 26-976): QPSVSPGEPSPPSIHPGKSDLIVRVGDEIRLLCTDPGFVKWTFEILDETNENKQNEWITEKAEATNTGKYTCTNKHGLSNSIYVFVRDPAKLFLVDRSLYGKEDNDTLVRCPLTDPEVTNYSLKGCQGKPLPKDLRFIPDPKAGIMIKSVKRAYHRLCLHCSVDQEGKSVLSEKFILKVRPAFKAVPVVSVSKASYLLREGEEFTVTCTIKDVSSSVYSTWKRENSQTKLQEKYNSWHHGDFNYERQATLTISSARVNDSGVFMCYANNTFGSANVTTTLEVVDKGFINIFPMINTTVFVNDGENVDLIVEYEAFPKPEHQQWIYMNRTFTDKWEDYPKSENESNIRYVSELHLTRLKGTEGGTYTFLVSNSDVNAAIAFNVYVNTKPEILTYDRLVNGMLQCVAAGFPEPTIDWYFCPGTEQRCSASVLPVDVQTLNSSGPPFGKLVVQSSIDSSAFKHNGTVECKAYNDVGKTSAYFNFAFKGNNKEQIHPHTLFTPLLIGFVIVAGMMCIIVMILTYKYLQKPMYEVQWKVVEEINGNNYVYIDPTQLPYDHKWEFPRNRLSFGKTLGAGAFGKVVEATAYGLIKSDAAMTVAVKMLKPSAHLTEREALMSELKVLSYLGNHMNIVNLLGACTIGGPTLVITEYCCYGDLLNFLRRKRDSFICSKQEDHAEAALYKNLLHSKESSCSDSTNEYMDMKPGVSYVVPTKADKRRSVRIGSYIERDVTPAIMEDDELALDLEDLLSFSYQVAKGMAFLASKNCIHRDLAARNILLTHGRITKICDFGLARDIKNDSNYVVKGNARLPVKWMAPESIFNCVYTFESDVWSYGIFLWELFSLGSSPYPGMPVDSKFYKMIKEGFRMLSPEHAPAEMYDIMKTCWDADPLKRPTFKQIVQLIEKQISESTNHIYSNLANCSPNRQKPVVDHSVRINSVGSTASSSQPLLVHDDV

Broadly, the IC50 is the concentration that gives 50% inhibition. Consider `COc1cncc(-c2cccc(COC(=O)Nc3ccc(Cl)c(C(F)(F)F)c3)c2)c1` [Example 260, {3-[5-(methyloxy)pyridin-3-yl]phenyl}methyl [4-chloro-3-(trifluoromethyl)phenyl]carbamate], for which the half-maximal inhibitory concentration (IC50) was 50 to 500 nM.
`O=C(Nc1ccc(Cl)c(C(F)(F)F)c1)OCc1cccc(-c2cccnc2)n1` [Example 261, 2,3′-bipyridin-6-ylmethyl [4-chloro-3-(trifluoromethyl)phenyl]carbamate] returned an IC50 of 500 to 5000 nM.
Compound `O=C(Nc1ccc(Cl)c(C(F)(F)F)c1)OCc1cccc(-c2cncnc2)n1` [Example 262, (6-pyrimidin-5-ylpyridin-2-yl)methyl [4-chloro-3-(trifluoromethyl)phenyl]carbamate] showed an IC50 of 500 to 5000 nM.
Regarding `O=C(NCc1cccc(-c2cncc3ccccc23)c1)Nc1ccc(Cl)c(C(F)(F)F)c1` [Example 263, N-[4-chloro-3-(trifluoromethyl)phenyl]-N′-[(3-isoquinolin-4-ylphenyl)methyl]urea], the IC50 was in the range of 500 to 5000 nM.
For the compound `O=C(NCc1ccc(-c2cncc3ccccc23)cc1)Nc1ccc(Cl)c(C(F)(F)F)c1` [Example 264, N-[4-chloro-3-(trifluoromethyl)phenyl]-N′-[(4-isoquinolin-4-ylphenyl)methyl]urea], the 50% inhibitory concentration (IC50) lay in the range of 500 to 5000 nM.
In turn, `O=C(Nc1cc(C(F)(F)F)ccn1)OCc1cccc(-n2cnnn2)n1` [Example 265, [6-(1H-tetrazol-1-yl)pyridin-2-yl]methyl [4-(trifluoromethyl)pyridin-2-yl]carbamate] came in with an IC50 of 50 to 500 nM.
In turn, `O=C(Nc1ccc(Cl)c(C(F)(F)F)c1)OCc1cccc(-c2cn[nH]c2)c1` [Example 266, [3-(1H-pyrazol-4-yl)phenyl]methyl [4-chloro-3-(trifluoromethyl)phenyl]carbamate] returned an IC50 of less than 50 nM.
Take `O=C(Nc1ccc(Cl)c(C(F)(F)F)c1)OCc1ccc(-c2cn[nH]c2)cc1` [Example 267, [4-(1H-pyrazol-4-yl)phenyl]methyl [4-chloro-3-(trifluoromethyl)phenyl]carbamate]: the 50% inhibitory concentration (IC50) was 500 to 5000 nM.
